{"source": "paper PMC12123601", "about": "“Light-Induced, Lysine-Targeting Irreversible Covalent Inhibition of the Human Oxygen Sensing Hydroxylase Factor Inhibiting HIF (FIH)” (Journal of the American Chemical Society, 2025)", "target": "T1, PHD2 (Homo sapiens, UniProt Q9GZT9)", "T1 construct": "endogenous in cells; host or cells: Hep3B (SCSP-5045)", "T1 sequence (Q9GZT9 whole entry)": "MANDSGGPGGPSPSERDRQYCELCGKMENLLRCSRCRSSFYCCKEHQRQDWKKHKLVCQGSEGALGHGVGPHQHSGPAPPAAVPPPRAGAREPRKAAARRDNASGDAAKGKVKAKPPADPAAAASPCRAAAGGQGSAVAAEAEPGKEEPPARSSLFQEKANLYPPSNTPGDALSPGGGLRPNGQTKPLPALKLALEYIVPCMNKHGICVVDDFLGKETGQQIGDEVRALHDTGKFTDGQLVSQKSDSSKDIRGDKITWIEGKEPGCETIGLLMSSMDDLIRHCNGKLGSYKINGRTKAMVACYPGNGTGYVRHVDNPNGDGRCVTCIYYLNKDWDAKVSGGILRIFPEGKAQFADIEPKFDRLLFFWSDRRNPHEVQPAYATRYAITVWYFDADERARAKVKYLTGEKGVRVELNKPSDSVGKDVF", "experiment": "CETSA in Hep3B cells detecting PHD2 engagement", "type": "cell-based", "settings": "50 μM, 12-48 h after 30 min light activation", "description": "To investigate potential cellular target engagement of NBA-ZG-2291 with FIH, we performed a time-dependent cellular thermal shift assay (CETSA) using Hep3B cells. The results imply that, after 30 min of light activation (365 nm, 16 W), NBA-ZG-2291 effectively stabilizes FIH with a ΔT m of about 9 °C after incubation for 12–48 h (Figure A), indicating sustained engagement with FIH. […] We also performed Western blotting to examine the protein levels of both HIF-1α and HIF-2α in control and NBA-ZG-2291-treated Hep3B cells.\nFigure S11. The CETSA assay detecting PHD2 engagement was carried out with Hep3B cells grown in the presence of NBA-ZG-2291 (50 µM) for 12-48 h after 30 minutes of light activation (365 nm, 16W). The intensity of the bands for grayscale analysis was referenced to the starting temperature (37 °C). α-Actinin was the sample loading control. n = 2; mean ± SD. The uncropped blot is […]\n(1 picture or pasted object on this page, not shown here)\n3.4 Intact protein mass spectrometry […]\nThe process of customizing non-standard residues (NBA-ZG-2291 modified Lys106) in the amber14sb force field involved the following steps: First, the molecular structure of NBA-ZG-2291 was obtained and its topology was generated. […] The molecular charges were then calculated using the RESP method, and the topology file was updated with these charge values. […]", "data": [{"smiles": "O=C(O)CNC(=O)c1ncc(-c2cc(-c3ccc(CO)c([N+](=O)[O-])c3)no2)cc1O", "note": "[NBA-ZG-2291]", "values": [{"measurement": "Effect on stability of PHD2 in cells (CETSA)", "result": "not observed to affect the stability of PHD2"}]}]}
